How the values were obtained:
Candida albicans = experiment: Antifungal susceptibility testing, wild type and drug-resistant strains; assay type: cell-based
Method: Anti-fungal susceptibility testing of a fluconazole-resistant C. albicans strain under standard conditions. Yeast were incubated at 30° C. for 24 hours with serial dilutions of the indicated compounds. Growth was monitored by OD600 and is expressed as fraction of the growth observed in the absence of compound.
Archives of all strains were maintained in 25% glycerol at −80° C. Standard S. cerevisiae lab strains W303, BY4741, BY4742 and BY4743 were used for experiments. The C. albicans wild type strain in FIG. 1 was CaI4, a standard laboratory strain (Fonzi, et al. (1993) Genetics 134, 717-728). […]
Sensitivity to gepinacin was determined in 96-well, flat bottom microtiter plates using a modification of the NCCLS broth microdilution protocol CLS M27-A3 and RPMI as culture medium. Fungi were inoculated at ˜10^3 cells per ml and incubated for 48 hours at 37° C. after which plates were sealed, shaken and the optical density read at 600 nm (OD600) on a Tecan Safire 2 plate reader. […] Results are expressed as fraction of growth in the absence of compound and the mean and standard deviation are plotted. […] Plates were then visually scored as specified by CLSI document M38-A2 to determine the MIC50 and MIC80.

[1] = test system: RAW264.7 macrophages co-cultured with treated C. albicans; experiment: Macrophage stimulation and TNFα measurement (ELISA); assay type: cell-based, mouse; settings: 2 hours co-culture
Method: Cultures of C. albicans Sc5314 cells were drug treated as described for β-glucan staining. After overnight incubation, cultures were washed extensively, counted, and added to cultures of the mouse macrophage cell line RAW264.7 at a macrophage:yeast ratio of 1:2.5 in the continued presence of drug. After 2 hours supernatants were harvested and TNFα concentration measured by ELISA using a kit according to manufacturer's instructions (DY410, R&D Systems).

PIG-W = molecular target: T1, PIG-W (Homo sapiens, UniProt Q7Z7B1); experiment: Growth of S. cerevisiae strain whose GWT1 is replaced by the human gene PIG-W; assay type: cell-based
T1 construct: expressed in transfected cells; host or cells: S. cerevisiae BY4741-derived gwt1 deletion shuttle strain carrying a pAG415GPD-based PIG-W plasmid
T1 sequence (Q7Z7B1 1-504): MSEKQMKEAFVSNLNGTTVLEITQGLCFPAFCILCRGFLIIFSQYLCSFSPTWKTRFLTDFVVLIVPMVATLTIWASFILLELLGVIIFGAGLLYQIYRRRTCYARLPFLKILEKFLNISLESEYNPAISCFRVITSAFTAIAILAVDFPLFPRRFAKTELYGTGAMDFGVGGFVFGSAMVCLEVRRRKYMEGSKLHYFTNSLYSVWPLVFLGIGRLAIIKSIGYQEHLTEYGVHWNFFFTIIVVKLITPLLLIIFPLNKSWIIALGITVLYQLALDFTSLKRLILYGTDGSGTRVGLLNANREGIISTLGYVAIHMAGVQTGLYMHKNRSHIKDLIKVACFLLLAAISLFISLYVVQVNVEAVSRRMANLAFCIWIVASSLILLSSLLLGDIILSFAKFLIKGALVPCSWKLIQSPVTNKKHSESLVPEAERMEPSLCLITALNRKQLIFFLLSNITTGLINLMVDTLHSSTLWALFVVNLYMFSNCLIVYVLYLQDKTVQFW
Method: Sensitivity to gepinacin was determined in 96-well, flat bottom microtiter plates using a modification of the NCCLS broth microdilution protocol CLS M27-A3 and RPMI as culture medium. Fungi were inoculated at ˜10^3 cells per ml and incubated for 48 hours at 37° C. after which plates were sealed, shaken and the optical density read at 600 nm (OD600) on a Tecan Safire 2 plate reader. All samples were run in duplicate or triplicate and assays were repeated at least once. Results are expressed as fraction of growth in the absence of compound and the mean and standard deviation are plotted. For the mold A. terreus, inoculum was 10^4 cells per ml and plates were incubated at 35° C. for 48 hours in the dark. Plates were then visually scored as specified by CLSI document M38-A2 to determine the MIC50 and MIC80.
Because GWT1 deletion is lethal in S. cerevisiae strain BY4741, a haploid shuttle strain was constructed in which the genomic copy of GWT1 was deleted and replaced by GWT1 on a plasmid that also encoded the URA3 gene and a G418-resistance gene. […]
An S. cerevesiae strain was generated in which the endogenous Gwt1 gene was deleted. […] Shown in FIGS. 22A-D show the effect of the indicated compounds on growth (assessed by OD600) and viability (assessed using Bactiter Glo) of the yeast strain with high copy or low copy plasmid containing S. cerevesiae Gwt1. […]

Structure (SMILES): COc1ccc(NC(=O)COc2cccc(OCC(C)C)c2)cc1 [gepinacin]
- growth inhibition (Candida albicans): inhibited the growth
- growth inhibition of isolates resistant to the three major classes of antifungals (Candida albicans; fluconazole-, amphotericin B-, caspofungin-resistant strains): inhibited the growth of multiple isolates
- TNFα secretion by macrophages [1]: more than doubled
- activity against PigW / in the PIG-W expressing strain (PIG-W): inactive
